# Experimental data reported in patent publication US20220402874A1, “SOLID FORMS OF OMECAMTIV MECARBIL DIHYDROCHLORIDE AND PROCESSES THEREOF” (DR. REDDY'S LABORATORIES LIMITED, priority 2019, published 2022).
# Where a name gives a salt, the structure may show the parent alone.
# Assays:
# [1] = storage stability of the solid form in a closed container (PXRD); format: physicochemical
# Method: Further, the premix of amorphous solid dispersion with Soluplus is also unstable as depicted in FIG. 8.
# In another aspect, the present application provides a crystalline Form OMT-D of Omecamtiv mecarbil dihydrochloride, characterized by a PXRD pattern comprising the peaks at about 12.98, 15.79, 18.55 and 25.63°±0.2° 2θ. In embodiments, the crystalline Form OMT-D of Omecamtiv mecarbil dihydrochloride is characterized by an additional peak at about 20.41°±0.2° 2θ. In embodiments, the application provides crystalline Form OMT-D of Omecamtiv mecarbil dihydrochloride, characterized by a PXRD pattern of FIG. 14. In embodiments, crystalline Form OMT-D of Omecamtiv mecarbil dihydrochloride is a solvate with dimethyl sulfoxide. In embodiments, crystalline Form OMT-D is monosolvate with dimethyl sulfoxide. In embodiments, crystalline Form OMT-D is stable for atleast 45 days stored in a closed container. In embodiments, the crystalline Form OMT-D is characterized by a thermogram of FIG. 16.
# [2] = described in the '270 application; cited from earlier work
compound,measurement,setting,value
"COC(=O)N1CCN(Cc2cccc(NC(=O)Nc3ccc(C)nc3)c2F)CC1 [Form OMT-D, Omecamtiv mecarbil dihydrochloride]",stable for at least (time stored),[1]; stored in a closed container,≥ 45 days
COC(=O)N1CCN(Cc2cccc(NC(=O)Nc3ccc(C)nc3)c2F)CC1 [Omecamtiv mecarbil dihydrochloride],stability of amorphous state (result in words),[1]; as depicted by PXRD in FIG. 5 / FIG. 8,unstable
"COC(=O)N1CCN(Cc2cccc(NC(=O)Nc3ccc(C)nc3)c2F)CC1 [anhydrous form B, Omecamtiv mecarbil dihydrochloride]",stability of crystalline form (result in words),[2],metastable
